These results are taken from US20230027361A1, “METTL3 MODULATORS” (priority 2019, published 2023).

Structures are written as SMILES. Like-named read-outs stand apart in the source and are kept apart here. Where only a bound is given, the exact number is not on record here.

Experiment [1] deals with METTL3/METTL14 (Homo sapiens, UniProt Q86U44). Briefly: METTL3-14 Standard Enzyme Assay (METTL3 biochemical assay). Summed up: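 METTL3/METTL14 at 2.5 nM, preincubated 5 min with compound in 20 mM HEPES pH 7.5, 50 mM KCl, 250 μM MgCl2, 1 mM DTT, at ambient temperature. Started with 100 nM 3′-biotinylated RNA and 100 nM ³H-SAM, quenched at 30 min with 15 μM cold SAM. Methylation read by scintillation on streptavidin flashplates.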
Sequence of METTL3/METTL14 (Q86U44 whole entry, species assumed): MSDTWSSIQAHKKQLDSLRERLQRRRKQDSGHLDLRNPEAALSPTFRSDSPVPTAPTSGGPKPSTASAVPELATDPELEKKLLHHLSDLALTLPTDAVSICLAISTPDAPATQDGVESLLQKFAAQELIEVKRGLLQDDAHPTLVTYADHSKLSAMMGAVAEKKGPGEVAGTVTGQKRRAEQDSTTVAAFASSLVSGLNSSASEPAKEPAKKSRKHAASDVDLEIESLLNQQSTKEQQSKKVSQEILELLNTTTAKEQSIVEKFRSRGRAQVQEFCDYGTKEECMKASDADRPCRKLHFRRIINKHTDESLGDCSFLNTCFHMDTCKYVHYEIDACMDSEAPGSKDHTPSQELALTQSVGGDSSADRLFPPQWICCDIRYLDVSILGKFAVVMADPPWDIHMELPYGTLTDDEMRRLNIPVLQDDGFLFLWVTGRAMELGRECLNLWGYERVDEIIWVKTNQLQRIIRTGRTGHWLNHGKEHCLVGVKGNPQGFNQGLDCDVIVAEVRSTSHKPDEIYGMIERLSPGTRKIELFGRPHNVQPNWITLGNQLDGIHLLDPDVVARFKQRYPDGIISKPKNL
Sequence of METTL3/METTL14 (Q9HCE5 whole entry partner, species assumed): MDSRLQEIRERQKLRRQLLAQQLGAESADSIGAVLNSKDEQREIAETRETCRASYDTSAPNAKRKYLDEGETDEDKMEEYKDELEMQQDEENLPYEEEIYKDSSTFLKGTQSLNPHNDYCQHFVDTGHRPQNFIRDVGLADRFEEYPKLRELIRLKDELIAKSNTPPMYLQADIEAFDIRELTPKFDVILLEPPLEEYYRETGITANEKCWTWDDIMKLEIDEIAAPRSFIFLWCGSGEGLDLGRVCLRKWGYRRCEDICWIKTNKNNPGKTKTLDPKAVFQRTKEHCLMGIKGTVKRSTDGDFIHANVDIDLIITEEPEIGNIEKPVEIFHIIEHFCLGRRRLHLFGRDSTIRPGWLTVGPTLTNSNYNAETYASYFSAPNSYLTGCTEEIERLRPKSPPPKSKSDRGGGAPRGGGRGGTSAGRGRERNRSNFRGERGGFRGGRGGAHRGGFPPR

The subject of experiment [2] is MOLM-13 cells. Kind of experiment: MOLM-13 96 Hour Cell Proliferation Assay. The experiment is classed as cell-based. The procedure:
MOLM-13 (DSMZ) cells were seeded at 600 cells per well in a volume of 44 μL in a Greiner Bio-One CELLSTAR™ 384 Well Polystyrene Cell Culture clear bottom microplate in RPMI 1640 media containing 10% fetal bovine serum using a Multidrop Combi (ThermoFisher Scientific). Cells were incubated overnight at 37° C. in a humidified tissue culture incubator. To prevent evaporation or to reduce edge effect, add 50 μL or more H2O to an empty plate, cover, and place on top of the cell plates. The Mosquito® HTS Liquid Handler was used to make a compound/media intermediate plate by aliquoting 1 μL of compound from the initial compound dilution plate (concentrations ranging from 10.0 mM to 38.0 nM in 100% DMSO) into Bio-One 384-well polypropylene conical bottom microplate containing 49 μL of media containing the appropriate serum (50-fold dilution, 2% DMSO, compound concentrations ranging from 200.0 μM and […]). The Apricot liquid handling system was used to transfer 6.2 μL compounds from the intermediate plate into the seeding plate containing 44 μL cells (8-fold dilution spanning concentrations 25.0 μM to […], 0.25% DMSO final), and placed in a humidified tissue culture incubator at 37° C. After 96 hours, 25 μL of Cell Titer-Glo reagent (Promega) was added to each well using an Integra liquid handling system. The plate was protected from light using TopSeal-A (Black) film over the entire plate, added White Bottom seal film on the bottom of the entire plate for a better reading on the Envision, and placed on an IKA plate shaker for at 300 rpm for 10 minutes at room temperature. The plate was read on an EnVision plate reader (Perkin Elmer) using the Ultra Sensitive Luminescence protocol. Data analysis was performed by normalizing the raw luminescence units to an average of the positive control values for staurosporine (100% cell death) and the negative control values for DMSO (0% cell death). An IC50 was calculated using a 4-parameter logistic nonlinear regression model in GraphPad Prism.

In experiment [3] the test system is MOLM-13 cells. Kind of experiment: MOLM-13 48 Hour Cell Proliferation Assay. The experiment is classed as cell-based. The procedure:
MOLM-13 (DSMZ) cells were seeded at 1000 cells per well in a volume of 44 μL in a Falcon 384-well tissue culture treated clear bottom microplate in RPMI 1640 media containing 10% fetal bovine serum using a Multidrop Combi (ThermoFisher Scientific). Cells were incubated overnight at 37° C. in a humidified tissue culture incubator. The Mosquito® HTS Liquid Handler was used to make a compound/media intermediate plate by aliquoting 1 μL of compound from the initial compound dilution plate (concentrations ranging from 10.0 mM to 38.0 nM in 100% DMSO) into a V bottom 384-well screen matrix plate containing 49 μL of media containing the appropriate serum (50-fold dilution, 2% DMSO). The Apricot liquid handling system was used to transfer 6.2 μL compounds from the intermediate plate into the Falcon 384-well tissue culture plate containing 44 μL cells (10-point, 4-fold dilution spanning concentrations 25.0 μM to […], 0.25% DMSO final), and placed in a humidified tissue culture incubator at 37° C. After 48 hours, 25 μL of Cell Titer-Glo reagent (Promega) was added to each well using a Multidrop Combi. The plate was protected from light and placed on an IKA plate shaker for at 300 rpm for 10 minutes at room temperature. The plate was read on an EnVision plate reader (Perkin Elmer) using the Ultra Sensitive Luminescence protocol. Data analysis was performed by normalizing the raw luminescence units to an average of the positive control values for staurosporine (100% cell death) and the negative control values for DMSO (0% cell death). An IC50 was calculated using a 4-parameter logistic nonlinear regression model in GraphPad Prism.

The target of experiment [4] is PRMT5-MEP50 (Homo sapiens, UniProt O14744). Kind of experiment: PRMT5 Assay (PRMT5 biochemical assay). Summed up: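 PRMT5-MEP50 (2.5 nM final) preincubated 5 min with compound, then reacted 60 min at ambient temperature with 100 nM biotinylated N-acetyl histone H4 peptide and 250 nM 3H-SAM in 20 mM Tris-HCl pH 8.0, 1 mM DTT, 0.01% Tween. Quenched with 15 μM cold SAM; methylated peptide captured on streptavidin flashplates, scintillation counted.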
Sequence of PRMT5-MEP50 (O14744 whole entry): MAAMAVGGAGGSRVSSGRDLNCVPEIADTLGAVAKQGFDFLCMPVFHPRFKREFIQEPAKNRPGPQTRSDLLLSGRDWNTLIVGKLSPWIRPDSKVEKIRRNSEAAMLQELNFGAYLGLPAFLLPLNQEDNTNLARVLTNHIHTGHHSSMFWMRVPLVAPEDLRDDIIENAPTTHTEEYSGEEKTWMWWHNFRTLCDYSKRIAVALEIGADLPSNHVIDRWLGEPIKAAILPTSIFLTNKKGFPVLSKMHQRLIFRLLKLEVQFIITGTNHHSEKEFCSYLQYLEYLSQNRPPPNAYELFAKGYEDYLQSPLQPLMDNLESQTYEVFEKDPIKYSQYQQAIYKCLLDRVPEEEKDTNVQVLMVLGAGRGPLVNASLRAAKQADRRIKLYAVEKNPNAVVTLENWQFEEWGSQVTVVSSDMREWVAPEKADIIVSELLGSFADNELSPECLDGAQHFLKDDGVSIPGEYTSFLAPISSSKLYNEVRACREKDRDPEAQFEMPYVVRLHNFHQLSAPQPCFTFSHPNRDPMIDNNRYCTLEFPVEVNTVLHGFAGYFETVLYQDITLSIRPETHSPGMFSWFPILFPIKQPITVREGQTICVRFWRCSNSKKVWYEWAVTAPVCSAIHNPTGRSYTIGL
Sequence of PRMT5-MEP50 (Q9BQA1 whole entry partner): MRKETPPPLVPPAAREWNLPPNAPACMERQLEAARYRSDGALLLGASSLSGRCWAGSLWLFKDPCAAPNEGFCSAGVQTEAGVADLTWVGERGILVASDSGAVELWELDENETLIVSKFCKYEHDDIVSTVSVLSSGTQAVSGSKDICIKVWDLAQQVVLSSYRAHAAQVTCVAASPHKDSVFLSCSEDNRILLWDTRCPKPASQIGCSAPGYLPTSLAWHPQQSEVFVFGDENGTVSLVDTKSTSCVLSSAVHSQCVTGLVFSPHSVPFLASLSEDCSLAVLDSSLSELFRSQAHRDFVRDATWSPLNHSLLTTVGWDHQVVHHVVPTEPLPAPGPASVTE

The target of experiment [5] is METTL1/WDR4 (Homo sapiens, UniProt Q9UBP6). Briefly: METTL1 Assay (METTL1 biochemical assay). Summed up: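 Radiometric methyltransfer by METTL1/WDR4 (6.25 nM f.c., 5 min preincubation) at ambient temperature in HEPES pH 7.5, KCl, MgCl2, DTT; started with 25 nM 3′-biotinylated RNA and 60 nM 3H-SAM, run 20 min, quenched with 15 μM cold SAM. Product captured on streptavidin flashplates (2 h, 25° C), counted by scintillation.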
Sequence of METTL1/WDR4 (Q9UBP6 whole entry, species assumed): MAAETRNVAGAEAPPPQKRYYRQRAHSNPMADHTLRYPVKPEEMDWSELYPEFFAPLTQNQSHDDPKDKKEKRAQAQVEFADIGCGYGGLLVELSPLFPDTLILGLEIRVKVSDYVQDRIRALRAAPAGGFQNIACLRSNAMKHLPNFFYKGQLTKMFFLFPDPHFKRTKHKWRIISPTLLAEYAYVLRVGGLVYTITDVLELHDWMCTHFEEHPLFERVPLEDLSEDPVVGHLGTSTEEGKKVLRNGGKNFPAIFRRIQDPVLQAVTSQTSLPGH
Sequence of METTL1/WDR4 (P57081 whole entry partner, species assumed): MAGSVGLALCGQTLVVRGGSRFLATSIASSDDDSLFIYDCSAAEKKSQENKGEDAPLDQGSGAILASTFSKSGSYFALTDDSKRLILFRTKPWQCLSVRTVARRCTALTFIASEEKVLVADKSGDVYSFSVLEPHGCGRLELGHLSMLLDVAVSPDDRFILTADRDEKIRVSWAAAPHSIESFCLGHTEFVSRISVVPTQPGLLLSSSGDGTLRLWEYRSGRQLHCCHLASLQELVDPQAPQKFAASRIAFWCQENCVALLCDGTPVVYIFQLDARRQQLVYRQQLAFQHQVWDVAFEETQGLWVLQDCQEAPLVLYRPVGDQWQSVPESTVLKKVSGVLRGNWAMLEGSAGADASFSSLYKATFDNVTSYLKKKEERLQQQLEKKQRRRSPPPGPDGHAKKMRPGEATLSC

Setting [6] is: PRMT5 biochemical assay, read-out: PRMT5 IC50.
The mark [7] stands for this setting: METTL3 biochemical assay, read-out: METTL3 IC50.
[8] abbreviates: METTL1 biochemical assay, read-out: METTL1 IC50.

One may read the IC50 as the midpoint of a concentration-inhibition curve. Regarding `CCc1cc(N(C)CC2CC2)c2ccc(OC[C@H]3O[C@@H](n4cc(-c5ccn(C)n5)c5c(N)ncnc54)[C@@H](F)[C@@H]3O)cc2n1` [I-155], the half-maximal inhibitory concentration (IC50) is < 0.01 µM in experiment [1], < 1 µM in experiment [2] (Homo sapiens) and 1 to 10 µM in experiment [3] (Homo sapiens).

As to `Cn1ccc(-c2cn([C@@H]3O[C@H](COc4ccc5ccc(N6CC(N)C6)nc5c4)[C@@H](O)[C@@H]3F)c3ncnc(N)c23)n1` [I-181], the 50% inhibitory concentration (IC50) is < 0.01 µM in experiment [1], > 1 µM in experiment [4], < 1 µM in experiment [2] (Homo sapiens) and < 1 µM in experiment [3] (Homo sapiens).

On to `Nc1ncnc2c1c([C@H]1CCCO1)cn2[C@@H]1O[C@H](COc2ccc3ccc(N4CCC4)nc3c2)[C@@H](O)[C@@H]1F` [I-225], for which the half-maximal inhibitory concentration (IC50) was > 1 µM in experiment [4] (setting [6]), 1 to 10 µM in experiment [2] and 1 to 10 µM in experiment [3].

Turning to `CN(CCO)c1ccc2ccc(OC[C@H]3O[C@@H](n4cc(-c5ccn(C)n5)c5c(N)ncnc54)[C@@H](F)[C@@H]3O)cc2n1` [I-162], the IC50 is < 0.01 µM in experiment [1], > 1 µM in experiment [4], < 1 µM in experiment [2] (Homo sapiens) and 1 to 10 µM in experiment [3] (Homo sapiens).

Take `CCc1cc(N(C)C)c2ccc(OC[C@H]3O[C@@H](n4cc(-c5ccn(C)n5)c5c(N)ncnc54)[C@@H](F)[C@@H]3O)cc2n1` [I-153]: the IC50 was < 0.01 µM in experiment [1], < 1 µM in experiment [2] (Homo sapiens) and 1 to 10 µM in experiment [3] (Homo sapiens).

In the case of `CCc1cc(NCCOC)c2ncc(OC[C@H]3O[C@@H](n4cc(-c5ccn(C)n5)c5c(N)ncnc54)[C@H](O)[C@@H]3O)cc2n1` [I-159], the results for the half-maximal inhibitory concentration (IC50) in experiment [1], in experiment [2] (Homo sapiens) and in experiment [3] (Homo sapiens) were < 0.01 µM, 1 to 10 µM and > 10 µM, respectively.

For `CCc1cc(N(C)C2CC2)c2ccc(OC[C@H]3O[C@@H](n4cc(-c5ccn(C)n5)c5c(N)ncnc54)[C@@H](F)[C@@H]3O)cc2n1` [I-154], the figures for the concentration for half-maximal inhibition (IC50) in experiment [1], in experiment [2] (Homo sapiens) and in experiment [3] (Homo sapiens) were < 0.01 µM, 1 to 10 µM and 1 to 10 µM, respectively.

Consider `Nc1ncnc2c1ccn2[C@H]1C[C@H](O)[C@@H](COc2ccc3ccc(NC4CC4)nc3c2)O1` [I-180], for which the 50% inhibitory concentration (IC50) in experiment [1] (setting [7]) is 0.01 to 0.1 µM; in experiment [4] (setting [6]) it was 0.1 to 1 µM; in experiment [2] (Homo sapiens, MOLM-13, 96 h), > 10 µM; in experiment [3] (Homo sapiens) it was > 10 µM.

On to `Nc1ncnc2c1c(-n1ccc(C(F)(F)F)n1)cn2[C@@H]1O[C@H](COc2ccc3ccc(N4CCC4)nc3c2)[C@@H](O)[C@@H]1F` [I-221], for which the half-inhibitory concentration (IC50) in experiment [1] was < 0.01 µM; in experiment [4], > 1 µM; in experiment [2] (Homo sapiens), 1 to 10 µM; in experiment [3] (Homo sapiens), 1 to 10 µM.

`CCc1cc(N(C)C2CC2)c2ccc(OC[C@H]3O[C@@H](n4cc(-c5ccn(C)n5)c5c(N)ncnc54)C[C@@H]3O)cc2n1` [I-160]: the figures for the concentration for half-maximal inhibition (IC50) in experiment [1], in experiment [2] (Homo sapiens) and in experiment [3] (Homo sapiens) were < 0.01 µM, 1 to 10 µM and 1 to 10 µM, respectively.

On to `CNc1ccc2ccc(OC[C@H]3O[C@@H](n4cc(-c5ccc(C)cn5)c5c(N)ncnc54)[C@@H](F)[C@@H]3O)cc2n1` [I-231], for which the IC50 in experiment [5] (setting [8]) was > 1 µM; in experiment [1], < 0.01 µM; in experiment [4], 0.1 to 1 µM; in experiment [3] (Homo sapiens), < 1 µM.

In the case of `CNc1ccc2ccc(OC[C@H]3O[C@@H](n4cc(-c5cccc(C)n5)c5c(N)ncnc54)[C@@H](F)[C@@H]3O)cc2n1` [I-229], the half-maximal inhibitory concentration (IC50) in experiment [5] (setting [8]) is > 1 µM; in experiment [1], < 0.01 µM; in experiment [4], 0.01 to 0.1 µM; in experiment [3] (Homo sapiens), 1 to 10 µM.

Turning to `CNc1ccc2ccc(OC[C@H]3O[C@@H](n4cc(F)c5c(N)ncnc54)[C@@H](F)[C@@H]3O)cc2n1` [I-230], the half-inhibitory concentration (IC50) in experiment [5] is > 1 µM; in experiment [1] (setting [7]), < 0.01 µM; in experiment [4] (setting [6]) it was 0.01 to 0.1 µM; in experiment [3] (Homo sapiens), 1 to 10 µM.

In the case of `CNc1ccc2ccc(OC[C@H]3O[C@@H](n4cc(-c5ccn(C6COC6)n5)c5c(N)ncnc54)[C@@H](F)[C@@H]3O)cc2n1` [I-144], the IC50 in experiment [5] (setting [8]) was > 1 µM; in experiment [1] (read-out: METTL3 IC50, METTL3 biochemical assay) it was < 0.01 µM; in experiment [4] (read-out: PRMT5 IC50, PRMT5 biochemical assay), 0.1 to 1 µM; in experiment [3] (Homo sapiens), 1 to 10 µM.

For `CCc1cc(N2CCOCC2)c2ccc(OC[C@H]3O[C@@H](n4cc(-c5ccn(C)n5)c5c(N)ncnc54)[C@@H](F)[C@@H]3O)cc2n1` [I-156], the IC50 in experiment [1] is < 0.01 µM; in experiment [2] (Homo sapiens) it was < 1 µM; in experiment [3] (Homo sapiens), 1 to 10 µM.
